Assay results reported in patent US10189839B2, “Tricyclic imidazole compounds as inhibitors of tryptophan hydroxylase” (ACTELION PHARMACEUTICALS LTD, priority 2013, dated 2019).

Each compound was assayed against T1, full length human TPH1 (Homo sapiens, UniProt P17752) (assay: Biochemical in vitro assay using fluorescence readout (TPH1 enzyme activity)). Conditions: Table 1, mean where determined several times.
T1 construct: To generate the enzyme, full length human TPH1 is cloned into the plasmid pET20b(+); made in house; host or cells: E. coli
T1 sequence (P17752 1-444): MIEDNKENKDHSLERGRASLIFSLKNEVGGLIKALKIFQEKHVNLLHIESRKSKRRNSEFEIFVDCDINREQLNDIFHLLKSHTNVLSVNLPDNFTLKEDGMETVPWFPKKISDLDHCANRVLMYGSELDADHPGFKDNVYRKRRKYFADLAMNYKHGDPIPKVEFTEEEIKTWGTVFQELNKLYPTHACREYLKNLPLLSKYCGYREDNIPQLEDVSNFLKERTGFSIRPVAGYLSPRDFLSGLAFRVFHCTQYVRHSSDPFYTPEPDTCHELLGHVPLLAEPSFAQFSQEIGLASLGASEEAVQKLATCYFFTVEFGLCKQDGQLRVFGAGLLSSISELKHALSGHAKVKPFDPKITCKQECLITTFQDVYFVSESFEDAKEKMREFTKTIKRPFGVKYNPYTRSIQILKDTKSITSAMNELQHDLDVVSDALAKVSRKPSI
Excerpt: Inhibitory activities on tryptophan hydroxylase 1 have been measured for each example compound using the following procedure:
Biochemical In Vitro Assay Using Fluorescence Readout
To generate the enzyme, full length human TPH1 is cloned into the plasmid pET20b(+) (Novagen) and expressed in E. coli. The bacterial cells are ruptured by sonication on ice and the lysate is cleared by centrifugation. The resulting protein in the pellet is re-extracted and TPH1 is purified from the obtained lysate by affinity chromatography using a pterin cosubstrate analog immobilized to the resin of the column. The protein is further purified by size exclusion chromatography to remove protein aggregates. The activity of TPH1 is determined by using a fluorescence assay. The enzyme activity assay is carried out at 15° C. with atmosphere oxygen for the duration of 60 minutes in a volume of 64 μl. The reaction is carried out in a 0.1M Tris-HCl buffer, adjusted to pH 7.6, containing 1 mM DTT, 0.2 mg/ml catalase, 100 μM (±)-6-methyl-5,6,7,8-tetrahydropterine dihydrochloride, 40 μM L-tryptophan, and 40-80 nM of TPH1. The reaction is started by bringing together L-tryptophan with all the other reaction substituents and stopped by quenching with perchloric acid (HClO4). The amount of 5-hydroxy-L-tryptophan produced during the enzymatic reaction is determined by fluorescence readout. Fluorescence, as determined at 540 nm when excited at 300 nm wavelength, increases proportionally to the 5-hydroxy-L-tryptophan formed. Compounds are prepared as 10 mM stock solution in DMSO, then diluted in 384-well plates using DMSO followed by a transfer of the dilutions into the assay plate. Fluorescence is measured for each well and the fluorescence at 540 nm wavelength is compared to the fluorescence of the vehicle in place of compound. Inhibitory activities of example compounds with respect to the TPH1 protein are determined by calculating the IC50 value (the concentration of compound needed to inhibit 50% of the enzyme activity). The calculated IC50 values may fluctuate depending on the daily biochemical assay performance. Fluctuations of this kind are known to those skilled in the art. In the case where IC50 values have been determined several times for the same compound, the mean is given.
Compound `Cc1cnc(C2c3c(nc4n3CCCC4)CCN2C(=O)COc2ccc(C(=O)N(C)C3CC3)nc2Cl)c(F)c1` (centres unmarked) [Example 1.6.3, 6-chloro-N-cyclopropyl-5-(2-(1-(3-fluoro-5-methyl-pyridin-2-yl)-3,4,6,7,8,9-hexahydroimidazo[1,2-a:5,4-c′]dipyridin-2(1H)-yl)-2-oxoethoxy)-N-methyl-picolinamide] has an IC50 of 114 nM. For `Cc1ccc(C2c3c(nc4n3CCCC4)CCN2C(=O)COc2ccc(C(=O)N(C)C3CC3)nc2Cl)c(F)c1` (centres unmarked) [Example 1.2.3, 6-chloro-N-cyclopropyl-5-(2-(1-(2-fluoro-4-methyl-phenyl)-3,4,6,7,8,9-hexahydroimidazo[1,2-a:5,4-c′]dipyridin-2(1H)-yl)-2-oxoethoxy)-N-methylpicolinamide], the IC50 was 22 nM. Work on `CS(=O)(=O)Nc1ccc(OCC(=O)N2CCc3nc4n(c3[C@@H]2c2ccc(Cl)cc2F)CCCC4)c(Cl)n1` [Example 1.1.17, (S)-N-(6-chloro-5-(2-(1-(4-chloro-2-fluorophenyl)-3,4,6,7,8,9-hexahydroimidazo[1,2-a:5,4-c′]dipyridin-2(1H)-yl)-2-oxoethoxy)pyridin-2-yl)methanesulfonamide] yielded an IC50 of 23 nM. With `CCc1nc(N2CCCS2(=O)=O)ccc1OCC(=O)N1CCc2nc3n(c2C1c1ccc(Cl)cc1F)CCC3` (centres unmarked) [Example 2.1.3, 1-(1-(4-chloro-2-fluorophenyl)-3,4,7,8-tetrahydro-1H-pyrrolo[2′,1′:2,3]imidazo[4,5-c]pyridin-2(6H)-yl)-2-((6-(1,1-dioxidoisothiazolidin-2-yl)-2-ethylpyridin-3-yl)oxy)ethanone] the IC50 was 8 nM. `Cc1cnc(C2c3c(nc4n3CCCC4)CCN2C(=O)COc2ccc(C(=O)N(C)C)nc2Cl)c(F)c1` (centres unmarked) [Example 1.6.4, 6-chloro-5-(2-(1-(3-fluoro-5-methylpyridin-2-yl)-3,4,6,7,8,9-hexahydroimidazo[1,2-a:5,4-c′]dipyridin-2(1H)-yl)-2-oxoethoxy)-N,N-dimethylpicolinamide] showed an IC50 of 33 nM. For `CCc1cc(Cl)ccc1OCC(=O)N1CCc2nc3n(c2C1c1ncc(C2CC2)cc1F)CCNC3` (centres unmarked) [Example 5.4.5, 2-(4-chloro-2-ethylphenoxy)-1-(1-(5-cyclopropyl-3-fluoropyridin-2-yl)-3,4,6,7,8,9-hexahydropyrido[4′,3′:4,5]imidazo[1,2-a]pyrazin-2(1H)-yl)ethanone], the IC50 was 143 nM. For `CCc1nc(NS(C)(=O)=O)ccc1OCC(=O)N1CCc2nc3n(c2C1c1sc(C)nc1C)CCCC3` (centres unmarked) [Example 1.10.13, N-(5-(2-(1-(2,4-dimethylthiazol-5-yl)-3,4,6,7,8,9-hexahydroimidazo[1,2-a:5,4-c′]dipyridin-2(1H)-yl)-2-oxoethoxy)-6-ethylpyridin-2-yl)methanesulfonamide], the IC50 was 8 nM. `O=C(COc1ccc(N2CCOCC2)cc1Cl)N1CCc2nc3n(c2C1c1ccc(C2CC2)cc1F)CCNC3` (centres unmarked) [Example 5.2.4, 2-(2-chloro-4-morpholinophenoxy)-1-(1-(4-cyclopropyl-2-fluorophenyl)-3,4,6,7,8,9-hexahydropyrido[4′,3′:4,5]imidazo[1,2-a]pyrazin-2(1H)-yl)ethanone] was tested, and the IC50 was 24 nM. In the case of `O=C(NC1CC1)c1ccc(OCC(=O)N2CCc3nc4n(c3C2c2ccc(OCCO)cc2F)CCCC4)c(Cl)n1` (centres unmarked) [Example 1.28.1, 6-chloro-N-cyclopropyl-5-(2-(1-(2-fluoro-4-(2-hydroxyethoxy)phenyl)-3,4,6,7,8,9-hexahydroimidazo[1,2-a:5,4-c′]dipyridin-2(1H)-yl)-2-oxoethoxy)picolinamide], the IC50 is reported as 54 nM. `O=C(COc1ccc(N2CCOCC2)nc1Cl)N1CCc2nc3n(c2C1c1ccc(Cl)cc1F)CCOC3` (centres unmarked) [Example 6.1.1, 1-(6-(4-chloro-2-fluorophenyl)-3,4,8,9-tetrahydro-1 H-pyrido[4′,3′:4,5]imidazo[2,1-c][1,4]oxazin-7(6H)-yl)-2-((2-chloro-6-morpholinopyridin-3-yl)oxy)ethanone] was tested, and the IC50 was 4 nM. `Cc1nc(C)c(C2c3c(nc4n3CCCC4)CCN2C(=O)COc2ccc(C(=O)N(C)C)nc2Cl)s1` (centres unmarked) [Example 1.10.5, 6-chloro-5-(2-(1-(2,4-dimethylthiazol-5-yl)-3,4,6,7,8,9-hexahydroimidazo[1,2-a:5,4-c′]dipyridin-2(1H)-yl)-2-oxoethoxy)-N,N-dimethylpicolinamide] showed an IC50 of 85 nM. With `Cc1cnc(C2c3c(nc4n3CCCC4)CCN2C(=O)COc2ccc(N3CCCS3(=O)=O)nc2Cl)c(F)c1` (centres unmarked) [Example 1.6.5, 2-((2-chloro-6-(1,1-dioxidoisothiazolidin-2-yl)pyridin-3-yl)oxy)-1-(1-(3-fluoro-5-methylpyridin-2-yl)-3,4,6,7,8,9-hexahydroimidazo[1,2-a:5,4-c′]dipyridin-2(1H)-yl)ethanone] the IC50 was 16 nM. With `CS(=O)(=O)Nc1ccc(OCC(=O)N2CCc3nc4n(c3C2c2ccc(Cl)cc2F)CCC4)c(Cl)n1` (centres unmarked) [Example 2.1.1, N-(6-chloro-5-(2-(1-(4-chloro-2-fluorophenyl)-3,4,7,8-tetrahydro-1H-pyrrolo[2′,1′:2,3]imidazo[4,5-c]pyridin-2(6H)-yl)-2-oxoethoxy)pyridin-2-yl)methanesulfonamide] the IC50 was 13 nM. In the case of `Cc1ccc(C2c3c(nc4n3CCCC4)CCN2C(=O)COc2ccc(NS(C)(=O)=O)nc2Cl)c(F)c1` (centres unmarked) [Example 1.2.1, N-(6-chloro-5-(2-(1-(2-fluoro-4-methylphenyl)-3,4,6,7,8,9-hexahydroimidazo[1,2-a:5,4-c′]dipyridin-2(1H)-yl)-2-oxoethoxy)pyridin-2-yl)methanesulfonamide], the IC50 is reported as 41 nM. `CC(=O)N1CCn2c(nc3c2C(c2ccc(C4CC4)cc2F)N(C(=O)COc2ccc(N4CCOCC4)nc2Cl)CC3)C1` (centres unmarked) [Example 5.2.8, 1-(7-acetyl-1-(4-cyclopropyl-2-fluorophenyl)-3,4,6,7,8,9-hexahydropyrido[4′,3′:4,5]imidazo[1,2-a]pyrazin-2(1H)-yl)-2-((2-chloro-6-morpholinopyridin-3-yl)oxy)ethanone] was tested, and the IC50 was 5 nM. Work on `O=C(COc1ccc(C2CC2)nc1Cl)N1CCc2nc3n(c2C1c1ccc(Cl)cc1F)CCS3` (centres unmarked) [Example 4.1.13, 1-(5-(4-chloro-2-fluorophenyl)-2,3,7,8-tetrahydrothiazolo[2′,3′:2,3]imidazo[4,5-c]pyridin-6(5H)-yl)-2-((2-chloro-6-cyclopropylpyridin-3-yl)oxy)ethanone] yielded an IC50 of 11 nM. In the case of `CCc1nc(NS(C)(=O)=O)ccc1OCC(=O)N1CCc2nc3n(c2C1c1cnc(C)s1)CCCC3` (centres unmarked) [Example 1.15.1, N-(6-ethyl-5-(2-(1-(2-methylthiazol-5-yl)-3,4,6,7,8,9-hexahydroimidazo[1,2-a:5,4-c′]dipyridin-2(1H)-yl)-2-oxoethoxy)pyridin-2-yl)methanesulfonamide], the IC50 is reported as 36 nM. `CCc1nc(NS(C)(=O)=O)ncc1OCC(=O)N1CCc2nc3n(c2C1c1sc(C)nc1C)CCCC3` (centres unmarked) [Example 1.10.18, N-(5-(2-(1-(2,4-dimethylthiazol-5-yl)-3,4,6,7,8,9-hexahydroimidazo[1,2-a:5,4-c′]dipyridin-2(1H)-yl)-2-oxoethoxy)-4-ethylpyrimidin-2-yl)methanesulfonamide] was tested, and the IC50 was 121 nM. `CC(=O)N1CCn2c(nc3c2C(c2cnc(N(C)C)s2)N(C(=O)COc2ccc(N4CCOCC4)nc2Cl)CC3)C1` (centres unmarked) [Example 5.6.2, 1-(7-acetyl-1-(2-(dimethylamino)thiazol-5-yl)-3,4,6,7,8,9-hexahydropyrido[4′,3′:4,5]imidazo[1,2-a]pyrazin-2(1H)-yl)-2-((2-chloro-6-morpholinopyridin-3-yl)oxy)ethanone] showed an IC50 of 37 nM.

Same assay, conditions: Table 2
`CC(C)(C)OC(=O)N1CCn2c(nc3c2C(c2cc(C(=O)NC#N)cs2)N(C(=O)COc2ccc(N4CCOCC4)nc2Cl)CC3)C1` (centres unmarked) [Example 5.14.1, Tert-butyl 2-(2-((2-chloro-6-morpholinopyridin-3-yl)oxy)acetyl)-1-(4-(cyanocarbamoyl)thiophen-2-yl)-1,2,3,4,8,9-hexahydropyrido[4′,3′:4,5]imidazo[1,2-a]pyrazine-7(6H)-carboxylate] showed an IC50 of 341 nM.
